Measured values published in patent publication US11384060B2, “Amide compounds and use thereof” (ALPHALA CO., LTD., priority 2017, dated 2022).
Like-named read-outs stand apart in the source and are kept apart here.

Key:
[1] = molecular target: T1, glucagon receptor (GCGR) (Homo sapiens, UniProt P47871); experiment: I125-glucagon binding assay (competition, GCGR membrane fractions)
T1 construct: expressed in transfected cells; host or cells: CHO-K1 cells overexpressing GCGR (membrane fractions)
T1 sequence (P47871 26-477): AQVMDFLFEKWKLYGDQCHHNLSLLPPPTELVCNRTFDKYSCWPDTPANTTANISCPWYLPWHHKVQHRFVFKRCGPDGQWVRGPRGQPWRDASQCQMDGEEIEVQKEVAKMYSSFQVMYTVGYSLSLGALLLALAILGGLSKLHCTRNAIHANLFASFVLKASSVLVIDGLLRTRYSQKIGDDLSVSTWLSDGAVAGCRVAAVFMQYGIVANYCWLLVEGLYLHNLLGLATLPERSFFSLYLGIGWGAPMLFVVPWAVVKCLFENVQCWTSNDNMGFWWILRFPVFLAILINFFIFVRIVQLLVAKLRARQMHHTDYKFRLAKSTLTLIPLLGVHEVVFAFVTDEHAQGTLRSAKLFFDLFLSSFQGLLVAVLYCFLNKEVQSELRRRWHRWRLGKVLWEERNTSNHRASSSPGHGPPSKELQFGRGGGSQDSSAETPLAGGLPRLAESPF
Procedure, shortened: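 Competition of 0.0625 nM (final) I^125-glucagon for 30 min at 25° C, after 5 min compound preincubation, using 7.5 μg/well GCGR-overexpressing CHO-K1 membranes in 50 mM Tris pH 7.4, 0.5% BSA. Filtration onto PEI-coated GF/B, micro-beta counting, and non-linear regression gave IC50.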

[2] = molecular target: T2, glucagon receptor (GCGR) overexpressed CHO-K1 cells or human primary hepatocytes (Homo sapiens, UniProt P47871); experiment: Glucagon cAMP inhibition assay (Cisbio cAMP Dynamic 2 HTRF); assay type: cell-based
T2 construct: expressed in transfected cells; host or cells: GCGR overexpressed CHO-K1 cells or human primary hepatocytes (endogenous receptor)
T2 sequence (P47871 26-477): as above
Procedure, shortened: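 HTRF read-out of glucagon-induced cAMP, with IC50 from non-linear regression. Cells (GCGR CHO-K1 or human primary hepatocytes) in HBSS/0.1% BSA/800 nM IBMX took compound dilutions for 30 min (final DMSO 1%), then EC50-level glucagon for 30 min at room temperature, then a 60 min lysis/detection step.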

[3] = competition with I125-glucagon 0.0625 nM, membrane fractions of GCGR overexpressed CHO-K1 cells
[4] = inhibition of glucagon (EC50 concentration) induced cAMP production

IC50 [1] [µM]	IC50 cAMP [2] [nM]	IC50 [1, 3] [µM]	IC50 cAMP [2, 4] [nM]	IC50 ([1]; uM) [µM]	Structure (SMILES)
4.15	5800	–	–	–	O=C(O)CCNC(=O)c1ccc(N[C@@H](Cc2ccccc2)C(=O)Nc2ccc(-c3ccccc3C(F)(F)F)cc2)cc1 [Compound 23-23]
–	–	0.307	689	–	CC(C)C[C@@H](COc1cc(F)c(-c2ccc(C(F)(F)F)cc2F)c(F)c1)Nc1ccc(C(=O)NCCC(=O)O)cc1 [Compound 7-7, (S)-3-(4-((4-methyl-1-((2,2′,6-trifluoro-4′-(trifluoromethyl)-[1,1′-biphenyl]-4-yl)oxy)pentan-2-yl)amino)benzamido)propanoic Acid]
–	–	0.207	195.6	–	CC(C)[C@@H](COc1ccc(-c2cc3ccccc3o2)cc1)Nc1ccc(C(=O)NCCC(=O)O)cc1 [Compound 1-2, (S)-3-(4-((1-(4-(benzofuran-2-yl)phenoxy)-3-methylbutan-2-yl)amino)benzamido)propanoic Acid]
> 30	>30000	–	–	–	CC(C)[C@@H](COc1nnc(-c2ccc(OC(F)(F)F)cc2)o1)Nc1ccc(C(=O)NCCC(=O)O)cc1 [Compound 22-15, (S)-3-(4-((3-methyl-1-((5-(4-(trifluoromethoxy)phenyl)-1,3,4-oxadiazol-2-yl)oxy)butan-2-yl)amino)benzamido)propanoic Acid]
0.745	986.5	–	–	–	CCCOC[C@H](Cc1ccc(-c2ccc(C(F)(F)F)cc2)cc1)Nc1ccc(C(=O)NCCC(=O)O)cc1 [Compound 19-22, (S)-3-(4-((1-propoxy-3-(4′-(trifluoromethyl)-[1,1′-biphenyl]-4-yl)propan-2-yl)amino)benzamido)propanoic Acid]
0.458	3100	–	–	–	Cc1cc(C)c(-c2ccc(C[C@H](Nc3ccc(C(=O)NCCC(=O)O)cc3)C(=O)Nc3ccc(C(C)(C)C)cc3)cc2)c(C)c1 [Compound 23-25]
–	5800	–	–	> 10	CCOC(=O)CCNC(=O)c1ccc(N[C@@H](Cc2ccccc2)C(=O)Nc2ccc(C(F)(F)F)cc2)cc1 [Compound 24-5, Ethyl (S)-3-(4-((1-oxo-3-phenyl-1-((4-(trifluoromethyl)phenyl)amino)propan-2-yl)amino)benzamido)propanoate]
–	–	0.138	546	–	CC(C)[C@@H](COc1ccc(-c2nc3ccccc3o2)cc1)Nc1ccc(C(=O)NCCC(=O)O)cc1 [Compound 1-48, (S)-3-(4-((1-(4-(benzo[d]oxazol-2-yl)phenoxy)-3-methylbutan-2-yl)amino)benzamido)propanoic Acid]
–	–	0.111	112	–	COc1cc(OC[C@@H](Nc2ccc(C(=O)NCCC(=O)O)cc2)C(C)C)ccc1-c1cc2ccccc2o1 [Compound 13-5, (S)-3-(4-((1-(4-(benzofuran-2-yl)-3-methoxyphenoxy)-3-methylbutan-2-yl)amino)benzamido)propanoic Acid]
5.82	30780	–	–	–	CC(C)C[C@@H](Nc1ccc(C(=O)NCCC(=O)O)cc1)C(=O)Nc1ccc(C(F)(F)F)cc1 [Compound 24-10, (R)-3-(4-((4-methyl-1-oxo-1-((4-(trifluoromethyl)phenyl)amino)pentan-2-yl)amino)benzamido)propanoic Acid]
–	–	0.074	209	–	CC(C)[C@@H](COc1cc(F)c(-c2ccc(Cl)cc2Cl)c(F)c1)Nc1ccc(C(=O)NCCC(=O)O)cc1 [Compound 7-11, (S)-3-(4-((1-((2′,4′-dichloro-2,6-difluoro-[1,1′-biphenyl]-4-yl)oxy)-3-methylbutan-2-yl)amino)benzamido)propanoic Acid]
–	–	0.608	23347	–	CC[C@H](C)[C@@H](COc1ccc(-c2nnc(-c3ccccc3)o2)c(OC)c1)Nc1ccc(C(=O)NCCC(=O)O)cc1 [Compound 13-12, 3-(4-(((2S,3S)-1-(3-methoxy-4-(5-phenyl-1,3,4-oxadiazol-2-yl)phenoxy)-3-methylpentan-2-yl)amino)benzamido)propanoic Acid]
0.379	280.6	–	–	–	CC[C@H](C)[C@@H](COc1ccc(-c2ccc(C(F)(F)F)cc2F)cn1)Nc1ccc(C(=O)NCCC(=O)O)cc1 [Compound 15-14, 3-(4-(((2S,3S)-1-((5-(2-fluoro-4-(trifluoromethyl)phenyl)pyridin-2-yl)oxy)-3-methylpentan-2-yl)amino)benzamido)propanoic Acid]
–	–	0.224	863.9	–	CC[C@H](C)[C@@H](COc1ccc(-c2cc3ccccc3o2)nc1)Nc1ccc(C(=O)NCCC(=O)O)cc1 [Compound 10-13, 3-(4-(((2S,3S)-1-((6-(benzofuran-2-yl)pyridin-3-yl)oxy)-3-methylpentan-2-yl)amino)benzamido)propanoic Acid]
–	–	0.708	11200	–	CC[C@H](C)[C@@H](COc1ccc(-c2nnc(-c3ccccc3)o2)cc1)Nc1ccc(C(=O)NCCC(=O)O)cn1 [Compound 4-5, 3-(6-(((2S,3S)-3-methyl-1-(4-(5-phenyl-1,3,4-oxadiazol-2-yl)phenoxy)pentan-2-yl)amino)nicotinamido)propanoic Acid]
–	–	0.18	344	–	CCCC[C@@H](COc1ccc(-c2ccc(C(F)(F)F)cc2F)nc1)Nc1ccc(C(=O)NCCC(=O)O)cc1 [Compound 10-8, (S)-3-(4-((1-((6-(2-fluoro-4-(trifluoromethyl)phenyl)pyridin-3-yl)oxy)hexan-2-yl)amino)benzamido)propanoic Acid]
–	–	0.61	414	–	CC[C@H](C)[C@@H](COc1ccc(-c2ccc(Cl)cc2Cl)cc1)Nc1ccc(C(=O)NCCC(=O)O)cn1 [Compound 4-3, 3-(6-(((2S,3S)-1-((2′,4′-dichloro-[1,1′-biphenyl]-4-yl)oxy)-3-methylpentan-2-yl)amino)nicotinamido)propanoic Acid]
–	–	0.03	28.1	–	CCCC[C@@H](COc1ccc(-c2ccc(Cl)cc2Cl)c(Cl)c1)Nc1ccc(C(=O)NCCC(=O)O)cc1 [Compound 3-12, (S)-3-(4-((1-((2,2′,4′-trichloro-[1,1′-biphenyl]-4-yl)oxy)hexan-2-yl)amino)benzamido)propanoic Acid]
–	–	0.053	80	–	CC(C)(C)[C@@H](COc1ccc(-c2ccc(C(F)(F)F)cc2F)c(Cl)c1)Nc1ccc(C(=O)NCCC(=O)O)cc1 [Compound 3-24, (S)-3-(4-((1-((2-chloro-2′-fluoro-4′-(trifluoromethyl)-[1,1′-biphenyl]-4-yl)oxy)-3,3-dimethylbutan-2-yl)amino)benzamido)propanoic Acid]
–	2000	–	–	> 10	O=C(O)CCNC(=O)c1ccc(N[C@@H](Cc2ccccc2)C(=O)Nc2ccc(-c3cc4ccccc4o3)cc2)cc1 [Compound 23-8, (S)-3-(4-((1-((4-(benzofuran-2-yl)phenyl)amino)-1-oxo-3-phenylpropan-2-yl)amino)benzamido)propanoic Acid]
–	–	0.308	227.6	–	CCCC[C@@H](COc1ccc(-c2ccc(C(F)(F)F)cc2F)c(F)c1)Nc1ccc(C(=O)NCCC(=O)O)cc1 [Compound 8-17, (S)-3-(4-((1-((2,2′-difluoro-4′-(trifluoromethyl)-[1,1′-biphenyl]-4-yl)oxy)hexan-2-yl)amino)benzamido)propanoic Acid]
–	–	0.167	148.5	–	CCCC[C@@H](COc1cc(C)c(-c2cc3ccccc3o2)c(C)c1)Nc1ccc(C(=O)NCc2nnn[nH]2)cc1 [Compound 2-13, (S)—N-((1H-tetrazol-5-yl)methyl)-4-((1-(4-(benzofuran-2-yl)-3,5-dimethylphenoxy)hexan-2-yl)amino)benzamide]
–	–	0.051	367.7	–	CCCC[C@@H](COc1ccc(-c2ccc(C(F)(F)F)cc2)c(Cl)c1)Nc1ccc(C(=O)NCCC(=O)O)cc1 [Compound 3-16, (S)-3-(4-((1-((2-chloro-4′-(trifluoromethyl)-[1,1′-biphenyl]-4-yl)oxy)hexan-2-yl)amino)benzamido)propanoic Acid]
–	–	1.72	10292	–	CC(C)[C@@H](COc1ccc(-c2cc3ccccc3o2)c(F)c1)Nc1ccc(C(=O)NCCS(=O)(=O)O)cc1 [Compound 8-4, (S)-2-(4-((1-(4-(benzofuran-2-yl)-3-fluorophenoxy)-3-methylbutan-2-yl)amino)benzamido)ethane-1-sulfonic Acid]
–	–	0.4	946.9	–	CC[C@H](C)[C@@H](CSc1ccc(-c2cc3ccccc3o2)cc1)Nc1ccc(C(=O)NCCC(=O)O)cc1 [Compound 5-3, 3-(4-(((2S,3S)-1-((4-(benzofuran-2-yl)phenyl)thio)-3-methylpentan-2-yl)amino)benzamido)propanoic Acid]
5.28	>30000	–	–	–	CC[C@H](C)[C@@H](COc1ccc(-c2ccc(F)cc2F)cn1)Nc1ccc(C(=O)NCCS(=O)(=O)O)cc1 [Compound 15-21, 2-(4-(((2S,3S)-1-((5-(2,4-difluorophenyl)pyridin-2-yl)oxy)-3-methylpentan-2-yl)amino)benzamido)ethane-1-sulfonic Acid]
–	–	1.13	5436	–	CC(C)[C@@H](Cc1noc(-c2ccc(C(C)(C)C)cc2)n1)Nc1ccc(C(=O)NCCC(=O)O)cc1 [Compound 21-3, (R)-3-(4-((1-(5-(4-(tert-butyl)phenyl)-1,2,4-oxadiazol-3-yl)-3-methylbutan-2-yl)amino)benzamido)propanoic Acid]
